Measurements published in ChEMBL document CHEMBL1201862, “PubChem BioAssay data set” (2004).
The source made the active and inactive calls.

Key:
[1] = molecular target: DNA dC->dU-editing enzyme APOBEC-3G (Homo sapiens, UniProt Q9HC16); assay type: functional;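 also: Dose-response counterscreen measuring inhibition of APOBEC3G DNA deaminase activity, run while confirming APOBEC3A inhibitors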
[2] = molecular target: DNA dC->dU-editing enzyme APOBEC-3A (Homo sapiens, UniProt P31941); assay: Dose Response confirmation of small molecule APOBEC3A DNA Deaminase Inhibitors via a fluorescence-based single-stranded DNA deaminase assay. [Related pubchem assays (depositor defined):AID493011, AID493024]; assay type: functional
[3] = molecular target: Eukaryotic translation initiation factor 4E (Mus musculus, UniProt P63073); assay: eIF4E–eIF4G protein interaction inhibitors, dose response, biochemical, TR-FRET (AID 855); assay type: functional;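 also: potency for disrupting eIF4E binding to eIF4GI seen as loss of FRET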
[4] = system: Streptococcus sp. 'group A'; assay: growth inhibition of control SK(-) GAS strain, dose response, counter-screen for streptokinase expression inhibitor project, luminescence, kanamycin, BacTiterGlo, confirmation (AID 1900); assay type: functional, organism-based
Streptokinase A = molecular target: T1, Streptokinase A (Streptococcus pyogenes serotype M1, UniProt P10520); assay: S. pyogenes streptokinase expression inhibitors, potency, dose response, plasminogen activation absorbance, OD405 (AID 1914); assay type: functional, Streptococcus pyogenes M1 GAS;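 also: secreted streptokinase activity via plasminogen activation per viability signal from cell pellet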
T1 sequence (P10520 whole entry): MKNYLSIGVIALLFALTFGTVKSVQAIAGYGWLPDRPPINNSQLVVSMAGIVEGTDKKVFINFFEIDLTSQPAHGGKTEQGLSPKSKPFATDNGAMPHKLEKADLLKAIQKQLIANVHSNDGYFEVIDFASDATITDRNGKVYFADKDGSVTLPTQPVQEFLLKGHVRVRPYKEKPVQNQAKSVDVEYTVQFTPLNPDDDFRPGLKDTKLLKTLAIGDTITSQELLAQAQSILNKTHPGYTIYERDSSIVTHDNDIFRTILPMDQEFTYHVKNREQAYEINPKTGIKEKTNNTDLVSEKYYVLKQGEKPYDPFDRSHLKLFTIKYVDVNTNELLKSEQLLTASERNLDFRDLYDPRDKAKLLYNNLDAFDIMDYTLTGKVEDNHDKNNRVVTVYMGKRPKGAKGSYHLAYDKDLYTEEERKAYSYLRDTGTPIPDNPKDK

X-box-binding protein 1 = X-box-binding protein 1 (Homo sapiens, UniProt P17861); assay type: functional, Cricetulus griseus;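 also: confirmatory dose-response counter-screen serving a CHOP assay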
Mu-type opioid receptor = Mu-type opioid receptor (Homo sapiens, UniProt P35372); assay type: functional, cell-based;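 also: U2OS cells with beta-arrestin recruitment to OPRM1 by beta-gal complementation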
[5] = molecular target: 5-hydroxytryptamine receptor 2A (Mus musculus, UniProt P35363); assay type: functional, cell-based;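 also: CHO-K1 cells with tagged receptor and beta-arrestin; agonist potency measured as compound-induced activation of the receptor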
Streptococcus = assay: Group A Streptococcus viability loss, dose response, counter-screen for streptokinase expression inhibitor project, luminescence, BacTiterGlo (AID 1915); assay type: functional, organism-based;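 also: potency for reduction of bacterial viability or growth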
[6] = molecular target: Acyl-homoserine lactone acylase PvdQ (Pseudomonas aeruginosa (strain LESB58), UniProt Q9I194); assay: P. aeruginosa PvdQ acylase inhibitors, dose response, biochemical, fluorescence, plate reader and imaging, cherry-picks (AID 493231)
Aspartyl aminopeptidase = Aspartyl aminopeptidase (Plasmodium falciparum 3D7, UniProt Q8I2J3)
Procathepsin L = Procathepsin L (Homo sapiens, UniProt P07711)
[7] = molecular target: Glyceraldehyde-3-phosphate dehydrogenase (Homo sapiens, UniProt P04406)
[8] = molecular target: T2, Tyrosine-protein phosphatase non-receptor type 7 (Homo sapiens, UniProt P35236); assay type: functional
T2 sequence (P35236 whole entry): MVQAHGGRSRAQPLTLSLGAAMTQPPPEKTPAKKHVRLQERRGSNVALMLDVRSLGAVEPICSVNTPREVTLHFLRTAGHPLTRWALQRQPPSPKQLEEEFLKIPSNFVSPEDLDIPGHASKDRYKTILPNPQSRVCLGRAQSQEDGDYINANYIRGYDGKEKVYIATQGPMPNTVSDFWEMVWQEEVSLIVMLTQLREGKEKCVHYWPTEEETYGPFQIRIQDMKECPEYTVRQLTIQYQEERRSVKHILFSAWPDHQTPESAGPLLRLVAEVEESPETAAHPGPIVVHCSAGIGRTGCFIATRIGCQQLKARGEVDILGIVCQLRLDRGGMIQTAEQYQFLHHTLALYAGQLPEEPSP

[9] = molecular target: T3, Dual specificity protein phosphatase 6 (Rattus norvegicus, UniProt Q64346); assay type: functional
T3 sequence (Q64346 whole entry): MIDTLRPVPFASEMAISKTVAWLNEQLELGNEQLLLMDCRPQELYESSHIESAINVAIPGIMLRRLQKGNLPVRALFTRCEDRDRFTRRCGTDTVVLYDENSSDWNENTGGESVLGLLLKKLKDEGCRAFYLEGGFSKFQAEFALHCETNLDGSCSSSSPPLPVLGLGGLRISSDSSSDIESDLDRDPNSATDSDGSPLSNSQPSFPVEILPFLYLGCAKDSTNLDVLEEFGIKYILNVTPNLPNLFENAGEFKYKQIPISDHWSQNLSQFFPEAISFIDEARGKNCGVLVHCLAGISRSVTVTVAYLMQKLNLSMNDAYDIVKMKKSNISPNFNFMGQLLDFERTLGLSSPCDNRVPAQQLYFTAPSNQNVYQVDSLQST

[10] = molecular target: T3, Dual specificity protein phosphatase 6
[11] = molecular target: G-protein coupled receptor 55 (Homo sapiens, UniProt Q9Y2T6); assay: GPR55 antagonists blocking LPI-driven arrestin recruitment, primary screen, imaging, U2OS, beta-arrestin-GFP, LPI agonist (AID 2013); assay type: functional;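 also: antagonist potency measured as reduced agonist-driven arrestin aggregation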
Leucine aminopeptidase = molecular target: T4, Leucine aminopeptidase (Plasmodium falciparum 3D7, UniProt Q8IL11); assay: P. falciparum M17LAP inhibitors, primary screen, biochemical, fluorogenic H-Leu-NHMec substrate, 1536-well (AID 1619); assay type: functional
T4 sequence (Q8IL11 whole entry): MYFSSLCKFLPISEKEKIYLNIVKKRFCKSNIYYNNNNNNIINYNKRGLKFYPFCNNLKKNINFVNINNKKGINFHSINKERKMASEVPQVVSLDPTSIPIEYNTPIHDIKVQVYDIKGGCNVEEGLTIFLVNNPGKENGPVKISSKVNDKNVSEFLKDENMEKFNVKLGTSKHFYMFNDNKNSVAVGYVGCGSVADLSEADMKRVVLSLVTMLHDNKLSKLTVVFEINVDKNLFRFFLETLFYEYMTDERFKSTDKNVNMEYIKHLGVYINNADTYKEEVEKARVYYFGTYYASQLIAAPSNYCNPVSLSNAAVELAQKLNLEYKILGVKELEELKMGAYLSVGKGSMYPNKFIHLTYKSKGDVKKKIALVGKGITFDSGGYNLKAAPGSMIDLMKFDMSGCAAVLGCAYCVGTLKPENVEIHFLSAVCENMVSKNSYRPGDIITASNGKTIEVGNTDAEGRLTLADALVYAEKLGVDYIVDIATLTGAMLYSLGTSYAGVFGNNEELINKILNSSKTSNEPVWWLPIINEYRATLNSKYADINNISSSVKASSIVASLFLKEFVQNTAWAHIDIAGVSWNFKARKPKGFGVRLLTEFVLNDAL

[12] = molecular target: Induced myeloid leukemia cell differentiation protein Mcl-1 (Homo sapiens, UniProt Q07820); assay type: functional
ORF 73 = ORF 73 (Human herpesvirus 8, UniProt O40947); assay: inhibitors of C-LANA binding to LBS DNA, dose response, biochemical, fluorescence polarization, cherry-picked samples (AID 504725); parameters: species or system Human gammaherpesvirus 8;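 also: fluorescence polarization of a labeled DNA duplex reporting LANA DNA binding; potency is for inhibitors that block LANA binding to the DNA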
Estrogen receptor beta = Estrogen receptor beta (Homo sapiens, UniProt Q92731); assay: ERβ–SRC-3 coactivator interaction inhibitors, confirmation, orthogonal assay, biochemical, ELISA, streptavidin-HRP readout (AID 1060)
[13] = A Cell Based Secondary Assay To Explore Cytotoxicity of Compounds that Sensitize Mycobacterium Tuberculosis to Beta-Lactam Antibiotics.; assay type: functional
[14] = Luminescence Cell-Based Dose Response HTS to Identify Activators of Luciferase Translation or Activity in H4 […] Cells. [Related pubchem assays: 1829 (Project Summary), 1814 (Primary HTS)]; assay type: functional
Cytochrome P450 1A2 = molecular target: T5, Cytochrome P450 1A2 (Homo sapiens, UniProt P05177);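 also: PubChem cytochrome P450 panel assay, CYP1A2 panel member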
T5 sequence (P05177 whole entry): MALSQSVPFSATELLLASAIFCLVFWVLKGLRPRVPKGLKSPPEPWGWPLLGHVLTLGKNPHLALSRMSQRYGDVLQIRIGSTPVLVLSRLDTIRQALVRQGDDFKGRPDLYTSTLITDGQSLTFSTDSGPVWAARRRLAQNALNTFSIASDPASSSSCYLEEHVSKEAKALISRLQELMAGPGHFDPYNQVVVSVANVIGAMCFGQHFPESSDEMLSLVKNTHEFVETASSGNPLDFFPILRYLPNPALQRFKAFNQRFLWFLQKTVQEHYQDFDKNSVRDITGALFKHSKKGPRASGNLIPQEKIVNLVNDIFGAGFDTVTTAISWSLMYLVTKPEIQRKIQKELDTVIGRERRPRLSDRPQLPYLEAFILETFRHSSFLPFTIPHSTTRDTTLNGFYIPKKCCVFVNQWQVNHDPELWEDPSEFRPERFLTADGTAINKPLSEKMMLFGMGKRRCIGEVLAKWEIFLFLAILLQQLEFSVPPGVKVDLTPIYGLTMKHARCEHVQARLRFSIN

Cytochrome P450 2C19 = Cytochrome P450 2C19 (Homo sapiens, UniProt P33261); assay: Cytochrome panel assay with activity outcomes. Panel member name: p450-cyp2c19 Compounds with AC50 equal or less than 10 uM are considered active; assay type: functional; details: read-out: AC50
[15] = Luminescence Cell-Based Dose Confirmation HTS to Identify Activators of 5'UTR Stem-Loop Driven Alpha-Synuclein mRNA Translation in H4 Neuroglioblastoma Cells. [Related pubchem assays: 1829 (Project Summary), 1814 (Primary HTS)]; assay type: functional
H4 = assay: Luminescence Cell-Based Dose Response HTS to Identify Activators of 5'UTR Stem-Loop Driven Prion Protein mRNA Translation in H4 Neuroglioblastoma Cells. [Related pubchem assays: 1829 (Project Summary), 1814 (Primary HTS)]; assay type: functional; details: Homo sapiens
Large T antigen = Large T antigen (Simian virus 40, UniProt P03070); assay type: functional, Betapolyomavirus macacae;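 also: Confirmatory-stage PubChem screen for compounds that inhibit SV40 T antigen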
[16] = THP-1 cell cytotoxicity, dose response, cytotoxicity control for Vif-APOBEC3G degradation inhibitor project, THP-1 cells (AID 1117359); assay type: functional; details: Human immunodeficiency virus 1, THP-1
SUMO-activating enzyme [17] = molecular target: T6, SUMO-activating enzyme (Homo sapiens, UniProt Q9UBT2); assay: SUMOylation inhibitor hit validation, confirmation, SUMOylation inhibitor project, biochemical, AlphaScreen (AID 2018); assay type: functional
SUMO-activating enzyme [18] = molecular target: T6, SUMO-activating enzyme; assay: inhibitors of in vitro SUMOylation cascade, primary screen, biochemical, HTRF, uHTS (AID 2006); assay type: protein-complex assay
[19] = molecular target: T7, Heat shock factor protein 1 (Mus musculus, UniProt P38532); assay: inhibition of MG132-induced HSE-luciferase signal, confirmation, cell-based, NIH3T3, luminescence, dose retest (AID 2382); assay type: functional;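 also: NIH3T3 fibroblasts with HSF1-driven luciferase reporter stressed by proteasome inhibitor MG132; luminescence from HSF1-driven luciferase expression after 8 hours of MG132 stress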
T7 sequence (P38532 whole entry): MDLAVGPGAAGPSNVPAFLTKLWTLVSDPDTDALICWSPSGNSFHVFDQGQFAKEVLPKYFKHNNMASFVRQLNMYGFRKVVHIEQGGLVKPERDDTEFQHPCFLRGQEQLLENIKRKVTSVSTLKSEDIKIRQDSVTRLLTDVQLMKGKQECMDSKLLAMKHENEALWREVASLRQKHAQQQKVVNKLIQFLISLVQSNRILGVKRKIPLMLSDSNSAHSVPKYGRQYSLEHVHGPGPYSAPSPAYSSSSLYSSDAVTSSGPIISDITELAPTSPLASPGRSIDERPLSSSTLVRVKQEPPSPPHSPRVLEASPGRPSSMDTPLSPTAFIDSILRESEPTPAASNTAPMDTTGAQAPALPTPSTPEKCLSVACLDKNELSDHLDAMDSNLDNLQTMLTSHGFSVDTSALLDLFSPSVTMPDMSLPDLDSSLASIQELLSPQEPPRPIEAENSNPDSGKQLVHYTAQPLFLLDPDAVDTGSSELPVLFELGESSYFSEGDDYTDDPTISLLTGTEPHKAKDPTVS

Sequence of Procathepsin L (P07711 whole entry): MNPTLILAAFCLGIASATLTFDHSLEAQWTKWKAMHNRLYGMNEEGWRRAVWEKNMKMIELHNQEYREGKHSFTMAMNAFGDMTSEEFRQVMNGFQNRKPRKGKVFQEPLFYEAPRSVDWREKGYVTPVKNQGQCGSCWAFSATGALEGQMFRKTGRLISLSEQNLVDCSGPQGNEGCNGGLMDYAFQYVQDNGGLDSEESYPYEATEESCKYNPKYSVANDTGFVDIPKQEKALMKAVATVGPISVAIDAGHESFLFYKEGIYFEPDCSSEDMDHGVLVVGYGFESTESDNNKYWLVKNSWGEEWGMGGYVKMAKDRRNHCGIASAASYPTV
Sequence of X-box-binding protein 1 (P17861 whole entry): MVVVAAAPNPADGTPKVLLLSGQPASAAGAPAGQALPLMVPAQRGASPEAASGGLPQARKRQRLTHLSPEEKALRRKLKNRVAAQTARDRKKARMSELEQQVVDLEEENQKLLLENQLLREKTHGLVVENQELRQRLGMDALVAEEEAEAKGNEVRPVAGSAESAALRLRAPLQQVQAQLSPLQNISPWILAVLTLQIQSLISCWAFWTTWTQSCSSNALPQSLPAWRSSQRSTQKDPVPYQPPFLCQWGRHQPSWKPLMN
Sequence of Aspartyl aminopeptidase (Q8I2J3 whole entry): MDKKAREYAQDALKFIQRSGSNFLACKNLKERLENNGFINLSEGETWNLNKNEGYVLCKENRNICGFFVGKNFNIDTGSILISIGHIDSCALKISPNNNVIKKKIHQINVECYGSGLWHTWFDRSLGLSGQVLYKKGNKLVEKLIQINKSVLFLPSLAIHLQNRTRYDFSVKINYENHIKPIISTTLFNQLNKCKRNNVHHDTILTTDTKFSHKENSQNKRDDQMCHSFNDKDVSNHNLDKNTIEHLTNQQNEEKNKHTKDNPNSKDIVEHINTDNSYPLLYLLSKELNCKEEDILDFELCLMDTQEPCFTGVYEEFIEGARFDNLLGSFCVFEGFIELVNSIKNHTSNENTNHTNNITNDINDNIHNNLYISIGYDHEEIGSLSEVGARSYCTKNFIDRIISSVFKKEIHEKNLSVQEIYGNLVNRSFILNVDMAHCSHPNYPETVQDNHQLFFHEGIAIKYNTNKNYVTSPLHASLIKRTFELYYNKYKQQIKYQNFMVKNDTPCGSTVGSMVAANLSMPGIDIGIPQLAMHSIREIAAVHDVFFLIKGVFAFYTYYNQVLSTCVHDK
Sequence of G-protein coupled receptor 55 (Q9Y2T6 whole entry): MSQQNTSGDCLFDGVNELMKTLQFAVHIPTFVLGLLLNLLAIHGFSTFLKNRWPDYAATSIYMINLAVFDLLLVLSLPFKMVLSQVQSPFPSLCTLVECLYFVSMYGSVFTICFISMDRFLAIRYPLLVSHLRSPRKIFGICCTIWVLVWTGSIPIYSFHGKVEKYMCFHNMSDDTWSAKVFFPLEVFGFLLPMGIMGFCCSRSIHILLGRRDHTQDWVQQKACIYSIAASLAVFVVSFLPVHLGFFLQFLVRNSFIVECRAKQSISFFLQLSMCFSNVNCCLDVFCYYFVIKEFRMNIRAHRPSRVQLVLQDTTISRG
T6 sequence (Q9UBE0 whole entry): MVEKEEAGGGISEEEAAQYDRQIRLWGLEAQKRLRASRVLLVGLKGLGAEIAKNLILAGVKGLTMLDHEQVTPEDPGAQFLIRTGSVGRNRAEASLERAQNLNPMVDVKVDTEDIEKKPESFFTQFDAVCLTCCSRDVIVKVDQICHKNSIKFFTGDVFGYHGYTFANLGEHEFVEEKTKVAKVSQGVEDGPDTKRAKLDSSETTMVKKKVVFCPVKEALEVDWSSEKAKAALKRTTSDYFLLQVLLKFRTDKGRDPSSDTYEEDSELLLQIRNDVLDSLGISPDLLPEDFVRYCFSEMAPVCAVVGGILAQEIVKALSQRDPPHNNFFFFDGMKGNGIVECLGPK
T6 sequence (Q9UBT2 whole entry): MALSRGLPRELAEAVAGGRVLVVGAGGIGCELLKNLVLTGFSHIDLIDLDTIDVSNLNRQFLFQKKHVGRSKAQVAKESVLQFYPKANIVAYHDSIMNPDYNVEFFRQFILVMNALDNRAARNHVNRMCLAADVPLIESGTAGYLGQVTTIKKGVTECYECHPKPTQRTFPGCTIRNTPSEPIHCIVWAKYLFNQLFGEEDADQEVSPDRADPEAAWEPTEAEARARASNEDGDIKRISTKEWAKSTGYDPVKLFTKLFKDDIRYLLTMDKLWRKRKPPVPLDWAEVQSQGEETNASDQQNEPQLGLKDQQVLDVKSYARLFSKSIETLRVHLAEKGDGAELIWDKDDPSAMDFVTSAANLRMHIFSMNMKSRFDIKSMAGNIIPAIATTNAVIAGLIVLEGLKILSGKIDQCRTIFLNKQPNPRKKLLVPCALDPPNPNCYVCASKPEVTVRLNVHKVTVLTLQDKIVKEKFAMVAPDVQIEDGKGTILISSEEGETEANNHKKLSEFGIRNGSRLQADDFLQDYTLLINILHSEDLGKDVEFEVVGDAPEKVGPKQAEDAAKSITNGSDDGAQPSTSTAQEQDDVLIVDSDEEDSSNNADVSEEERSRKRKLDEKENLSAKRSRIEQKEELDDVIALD
Sequence of Acyl-homoserine lactone acylase PvdQ (Q9I194 24-193 limits assumed): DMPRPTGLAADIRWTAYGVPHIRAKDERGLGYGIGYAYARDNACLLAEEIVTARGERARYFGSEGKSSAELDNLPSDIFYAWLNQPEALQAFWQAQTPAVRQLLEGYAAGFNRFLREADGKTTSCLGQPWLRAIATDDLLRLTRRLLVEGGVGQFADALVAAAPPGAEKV
Sequence of Acyl-homoserine lactone acylase PvdQ (Q9I194 217-762 limits assumed): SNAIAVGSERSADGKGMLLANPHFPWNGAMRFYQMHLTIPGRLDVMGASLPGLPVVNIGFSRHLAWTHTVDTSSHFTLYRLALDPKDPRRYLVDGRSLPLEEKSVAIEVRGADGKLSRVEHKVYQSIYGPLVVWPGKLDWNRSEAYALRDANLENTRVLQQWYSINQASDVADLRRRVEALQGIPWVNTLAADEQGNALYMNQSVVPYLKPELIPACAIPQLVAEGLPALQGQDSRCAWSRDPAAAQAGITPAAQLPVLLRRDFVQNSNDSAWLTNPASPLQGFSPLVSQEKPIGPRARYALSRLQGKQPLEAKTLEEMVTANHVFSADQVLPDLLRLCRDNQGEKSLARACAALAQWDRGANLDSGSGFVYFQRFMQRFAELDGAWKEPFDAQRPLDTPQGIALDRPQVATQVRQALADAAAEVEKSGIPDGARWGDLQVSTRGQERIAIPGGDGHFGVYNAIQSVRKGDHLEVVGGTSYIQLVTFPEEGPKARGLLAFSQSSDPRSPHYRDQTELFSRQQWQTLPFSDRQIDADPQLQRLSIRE
Sequence of Large T antigen (P03070 whole entry): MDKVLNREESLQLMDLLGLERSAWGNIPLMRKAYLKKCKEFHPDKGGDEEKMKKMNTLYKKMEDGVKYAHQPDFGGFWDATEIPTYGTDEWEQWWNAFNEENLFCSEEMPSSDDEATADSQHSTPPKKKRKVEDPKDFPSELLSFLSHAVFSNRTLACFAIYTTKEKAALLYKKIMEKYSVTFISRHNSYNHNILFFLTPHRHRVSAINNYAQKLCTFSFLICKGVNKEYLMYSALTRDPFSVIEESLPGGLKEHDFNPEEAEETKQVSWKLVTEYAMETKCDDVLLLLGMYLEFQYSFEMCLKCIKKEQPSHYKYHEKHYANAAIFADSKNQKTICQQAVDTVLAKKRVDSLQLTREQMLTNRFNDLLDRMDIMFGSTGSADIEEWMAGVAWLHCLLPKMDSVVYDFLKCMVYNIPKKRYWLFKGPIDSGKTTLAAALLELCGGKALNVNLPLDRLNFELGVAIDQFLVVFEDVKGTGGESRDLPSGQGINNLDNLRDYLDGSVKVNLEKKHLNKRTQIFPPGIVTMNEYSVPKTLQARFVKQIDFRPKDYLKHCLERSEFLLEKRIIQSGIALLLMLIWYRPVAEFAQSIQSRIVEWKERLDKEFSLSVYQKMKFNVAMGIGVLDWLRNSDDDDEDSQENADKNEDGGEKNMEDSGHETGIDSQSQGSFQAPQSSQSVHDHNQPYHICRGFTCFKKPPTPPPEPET
Sequence of Estrogen receptor beta (Q92731 whole entry): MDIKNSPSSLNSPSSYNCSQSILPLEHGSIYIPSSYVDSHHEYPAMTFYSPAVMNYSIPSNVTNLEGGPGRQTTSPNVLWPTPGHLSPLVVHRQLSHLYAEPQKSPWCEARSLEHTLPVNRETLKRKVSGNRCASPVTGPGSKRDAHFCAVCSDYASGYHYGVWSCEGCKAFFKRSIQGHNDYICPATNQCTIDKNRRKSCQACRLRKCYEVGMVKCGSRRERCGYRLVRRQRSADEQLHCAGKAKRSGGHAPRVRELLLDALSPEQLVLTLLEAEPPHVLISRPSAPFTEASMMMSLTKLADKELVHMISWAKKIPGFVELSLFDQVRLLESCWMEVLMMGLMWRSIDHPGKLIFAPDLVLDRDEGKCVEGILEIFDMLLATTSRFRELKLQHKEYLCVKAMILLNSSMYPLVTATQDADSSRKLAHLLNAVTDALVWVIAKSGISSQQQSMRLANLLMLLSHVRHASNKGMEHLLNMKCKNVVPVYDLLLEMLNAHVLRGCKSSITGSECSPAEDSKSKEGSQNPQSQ
Sequence of DNA dC->dU-editing enzyme APOBEC-3G (Q9HC16 whole entry): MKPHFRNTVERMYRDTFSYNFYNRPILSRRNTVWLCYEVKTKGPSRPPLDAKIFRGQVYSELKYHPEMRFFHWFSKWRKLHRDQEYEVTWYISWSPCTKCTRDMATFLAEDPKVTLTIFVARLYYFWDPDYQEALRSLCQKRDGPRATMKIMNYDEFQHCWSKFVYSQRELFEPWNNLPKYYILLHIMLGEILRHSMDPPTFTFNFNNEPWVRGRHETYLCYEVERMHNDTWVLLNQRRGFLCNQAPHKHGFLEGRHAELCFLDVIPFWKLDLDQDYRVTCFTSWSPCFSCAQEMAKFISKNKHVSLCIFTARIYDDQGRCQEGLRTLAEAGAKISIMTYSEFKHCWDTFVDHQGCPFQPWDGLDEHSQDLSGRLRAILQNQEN

CSCC[C@H](NC(=O)c1ccc(Cl)c(S(=O)(=O)N2CCCC2)c1)c1nc2ccccc2[nH]1
IC50 [1]: 4.93 µM (active)
IC50 [2]: 5.06 µM (active)

C=CCn1c(N)cc(=O)nc1SCC(=O)Nc1cccc2ccccc12
IC50 [3]: > 64 µM (inactive)

Cc1ccc(Nc2nc(N)nc(CN3CCN(c4ccccc4)CC3)n2)cc1Cl
EC50 [4]: 8.53 µM (active)
EC50 (Streptokinase A): > 150 µM (not active)
Absolute IC50 (XBP1) (X-box-binding protein 1): 10 µM
EC50 (Mu-type opioid receptor): 92.5 µM (inactive)
EC50 [5]: 76.1 µM (inactive)
EC50 (Streptococcus): 111 µM (active)

CCCOc1ccc(C(=O)CCC(=O)OCC(=O)Nc2cccc(S(N)(=O)=O)c2)cc1
AC50 [6]: > 100 µM (inactive)

O=C(O)CSc1nnc[nH]1
IC50 (Aspartyl aminopeptidase): 0.202 µM (active)
IC50 (Procathepsin L): > 59.6 µM (not active)

Cc1ccc2c(c1)NC(C(=O)O)NS2(=O)=O (configuration not stated)
IC50 [7]: > 100 µM (not active)
IC50 [8]: 3.35 µM (active)
IC50 [9]: 56.9 µM (active)
IC50 [10]: 52.5 µM (active)

COc1cc(C2c3sc(=O)[nH]c3SC3C4CCC(C4)C23)ccc1O (configuration not stated)
IC50 [11]: 0.672 µM (active)

Cc1cccc(C)c1NC(=O)CSc1nnc(-c2ccco2)c(-c2ccco2)n1
IC50 (Leucine aminopeptidase): 18.9 µM (active)
IC50 [12]: 4.92 µM (active)
AC50 (ORF 73): 160 µM (active)
IC50 (Estrogen receptor beta): 2 µM (not active)

O=C(Nc1ccc(Br)cc1Cl)Nn1cnnc1
IC50 (Aspartyl aminopeptidase): 0.711 µM (active)
IC50 (Procathepsin L): > 59.6 µM (not active)

O=C(Oc1oc(-c2ccco2)nc1/C=N/c1ccc(Cl)cc1)c1ccco1
CC50 [13]: > 40 µM (active)
EC50 [14]: 21.7 µM (active)
AC50 (Cytochrome P450 1A2): 15.8 µM (inconclusive)
AC50 (Cytochrome P450 2C19): 14.1 µM (inconclusive)
EC50 [15]: 14.3 µM (active)
EC50 (H4): 31.7 µM (active)

O=C1N=C(Nc2ccc(O)cc2)S/C1=C\C=C\c1ccco1
IC50 (Large T antigen): 31.5 µM (active)
CC50 [16]: 2.84 µM (active)
IC50 (SUMO-activating enzyme [17]): 2.59 µM (active)
IC50 (SUMO-activating enzyme [18]): 30.8 µM (active)

CCOC(=O)c1c(-c2ccccc2)oc2ccc(O)c(CN3CCN(C)CC3)c12
IC50 [11]: 6.85 µM (active)

Cc1cc(C)c2c(c1)/C(=N/NS(=O)(=O)c1ccc(Br)cc1)CCC2
EC50 [19]: > 195 µM (not active)
Absolute IC50 (XBP1) (X-box-binding protein 1): 10 µM

N#Cc1cccnc1Nc1ccc(Cl)cc1
AC50 [6]: 14.2 µM (active)
